According to PubChem BioAssay AID1963970 (Molecular Pharmacology Branch, DTP, NCI, 2024):

Test system: 931267-113-T-J1-PDC multicell spheroid viability
Experiment: Anticancer human tumor 931267-113-T-J1-PDC patient-derived colon adenocarcinoma cell line growth inhibition [PI3K]
Details: for IC50: curve of first compound; for viability, T/C: stronger effect = lower value
Summary of the method: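 Three cell types, namely tumor cells, endothelial cells and mesenchymal stem cells, formed each spheroid. Combinations with four PI3K inhibitors were screened at clinically achievable concentrations decreasing by half-log, and spheroid viability was recorded.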
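Note: viability read 7 days after compound addition.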

Q: With CNC(=O)c1ccc(N2C(=S)N(c3ccc(C#N)c(C(F)(F)F)c3)C(=O)C2(C)C)cc1F + CC(Nc1ncnc2nc[nH]c12)c1cc2cccc(Cl)c2c(=O)n1-c1ccccc1 as the compound, how does the IC50 (second compound 0.0316 µM) read?
A: > 10000 nM

Q: And the IC50 (second compound 0.1 µM)?
A: > 10000 nM

Q: What about the IC50 (second compound 0.316 µM) of the same compound?
A: > 10000 nM

Q: What about the IC50 (second compound 1 µM) of the same compound?
A: > 10000 nM

Q: And the IC50 (second compound 3.16 µM)?
A: > 10000 nM

Q: What about the IC50 (second compound 10 µM) of the same compound?
A: > 10000 nM

Q: And the viability, T/C (second compound 0.0316 µM, first compound 0.0316 µM)?
A: 107%

Q: And the viability, T/C (second compound 0.0316 µM, first compound 0.1 µM)?
A: 96.7%

Q: What about the viability, T/C (second compound 0.0316 µM, first compound 0.316 µM) of the same compound?
A: 113%

Q: What about the viability, T/C (second compound 0.0316 µM, first compound 1 µM) of the same compound?
A: 97.2%

Q: And the viability, T/C (second compound 0.0316 µM, first compound 3.16 µM)?
A: 111%

Q: And the viability, T/C (second compound 0.0316 µM, first compound 10 µM)?
A: 109%

Q: What about the viability, T/C (second compound 0.1 µM, first compound 0.0316 µM) of the same compound?
A: 108%

Q: What about the viability, T/C (second compound 0.1 µM, first compound 0.1 µM) of the same compound?
A: 101%

Q: What about the viability, T/C (second compound 0.1 µM, first compound 0.316 µM) of the same compound?
A: 104%

Q: What about the viability, T/C (second compound 0.1 µM, first compound 1 µM) of the same compound?
A: 104%

Q: And the viability, T/C (second compound 0.1 µM, first compound 3.16 µM)?
A: 101%

Q: And the viability, T/C (second compound 0.1 µM, first compound 10 µM)?
A: 103%

Q: What about the viability, T/C (second compound 0.316 µM, first compound 0.0316 µM) of the same compound?
A: 103%

Q: And the viability, T/C (second compound 0.316 µM, first compound 0.1 µM)?
A: 104%

Q: What about the viability, T/C (second compound 0.316 µM, first compound 0.316 µM) of the same compound?
A: 100%

Q: What about the viability, T/C (second compound 0.316 µM, first compound 1 µM) of the same compound?
A: 107%

Q: What about the viability, T/C (second compound 0.316 µM, first compound 3.16 µM) of the same compound?
A: 115%

Q: What about the viability, T/C (second compound 0.316 µM, first compound 10 µM) of the same compound?
A: 103%

Q: What about the viability, T/C (second compound 1 µM, first compound 0.0316 µM) of the same compound?
A: 102%

Q: And the viability, T/C (second compound 1 µM, first compound 0.1 µM)?
A: 103%

Q: What about the viability, T/C (second compound 1 µM, first compound 0.316 µM) of the same compound?
A: 96.6%

Q: What about the viability, T/C (second compound 1 µM, first compound 1 µM) of the same compound?
A: 102%

Q: What about the viability, T/C (second compound 1 µM, first compound 3.16 µM) of the same compound?
A: 117%

Q: And the viability, T/C (second compound 1 µM, first compound 10 µM)?
A: 109%

Q: And the viability, T/C (second compound 3.16 µM, first compound 0.0316 µM)?
A: 100%

Q: And the viability, T/C (second compound 3.16 µM, first compound 0.1 µM)?
A: 98.9%

Q: What about the viability, T/C (second compound 3.16 µM, first compound 0.316 µM) of the same compound?
A: 92.4%

Q: And the viability, T/C (second compound 3.16 µM, first compound 1 µM)?
A: 103%

Q: And the viability, T/C (second compound 3.16 µM, first compound 3.16 µM)?
A: 96.5%

Q: And the viability, T/C (second compound 3.16 µM, first compound 10 µM)?
A: 104%

Q: And the viability, T/C (second compound 10 µM, first compound 0.0316 µM)?
A: 99%

Q: What about the viability, T/C (second compound 10 µM, first compound 0.1 µM) of the same compound?
A: 97.9%

Q: And the viability, T/C (second compound 10 µM, first compound 0.316 µM)?
A: 93.9%

Q: What about the viability, T/C (second compound 10 µM, first compound 1 µM) of the same compound?
A: 96.1%

Q: What about the viability, T/C (second compound 10 µM, first compound 3.16 µM) of the same compound?
A: 102%

Q: And the viability, T/C (second compound 10 µM, first compound 10 µM)?
A: 84.4%

Q: With Cn1cnc2c(F)c(Nc3ccc(Br)cc3Cl)c(C(=O)NOCCO)cc21 + CC(Nc1ncnc2nc[nH]c12)c1cc2cccc(Cl)c2c(=O)n1-c1ccccc1 as the compound, how does the IC50 (second compound 0.0316 µM) read?
A: 123 nM

Q: What about the IC50 (second compound 0.1 µM) of the same compound?
A: 133 nM

Q: What about the IC50 (second compound 0.316 µM) of the same compound?
A: 117 nM

Q: And the IC50 (second compound 1 µM)?
A: 107 nM

Q: What about the IC50 (second compound 3.16 µM) of the same compound?
A: 96.7 nM

Q: And the IC50 (second compound 10 µM)?
A: 61.6 nM

Q: And the viability, T/C (second compound 0.0316 µM, first compound 0.00949 µM)?
A: 84%

Q: What about the viability, T/C (second compound 0.0316 µM, first compound 0.03 µM) of the same compound?
A: 71.9%

Q: What about the viability, T/C (second compound 0.0316 µM, first compound 0.0949 µM) of the same compound?
A: 51.7%

Q: And the viability, T/C (second compound 0.0316 µM, first compound 0.3 µM)?
A: 38.4%

Q: What about the viability, T/C (second compound 0.0316 µM, first compound 0.949 µM) of the same compound?
A: 23%

Q: What about the viability, T/C (second compound 0.0316 µM, first compound 3 µM) of the same compound?
A: 12.8%

Q: What about the viability, T/C (second compound 0.1 µM, first compound 0.00949 µM) of the same compound?
A: 89.1%

Q: What about the viability, T/C (second compound 0.1 µM, first compound 0.03 µM) of the same compound?
A: 80.1%

Q: What about the viability, T/C (second compound 0.1 µM, first compound 0.0949 µM) of the same compound?
A: 55.4%

Q: And the viability, T/C (second compound 0.1 µM, first compound 0.3 µM)?
A: 33.1%

Q: And the viability, T/C (second compound 0.1 µM, first compound 0.949 µM)?
A: 25.1%

Q: And the viability, T/C (second compound 0.1 µM, first compound 3 µM)?
A: 13.6%

Q: And the viability, T/C (second compound 0.316 µM, first compound 0.00949 µM)?
A: 92.1%

Q: What about the viability, T/C (second compound 0.316 µM, first compound 0.03 µM) of the same compound?
A: 77.9%

Q: What about the viability, T/C (second compound 0.316 µM, first compound 0.0949 µM) of the same compound?
A: 51.8%

Q: What about the viability, T/C (second compound 0.316 µM, first compound 0.3 µM) of the same compound?
A: 33.4%

Q: What about the viability, T/C (second compound 0.316 µM, first compound 0.949 µM) of the same compound?
A: 23.1%

Q: And the viability, T/C (second compound 0.316 µM, first compound 3 µM)?
A: 12.9%

Q: And the viability, T/C (second compound 1 µM, first compound 0.00949 µM)?
A: 88.8%

Q: And the viability, T/C (second compound 1 µM, first compound 0.03 µM)?
A: 72%

Q: What about the viability, T/C (second compound 1 µM, first compound 0.0949 µM) of the same compound?
A: 51.6%

Q: What about the viability, T/C (second compound 1 µM, first compound 0.3 µM) of the same compound?
A: 32.3%

Q: And the viability, T/C (second compound 1 µM, first compound 0.949 µM)?
A: 24.4%

Q: What about the viability, T/C (second compound 1 µM, first compound 3 µM) of the same compound?
A: 10.6%

Q: And the viability, T/C (second compound 3.16 µM, first compound 0.00949 µM)?
A: 74%

Q: What about the viability, T/C (second compound 3.16 µM, first compound 0.03 µM) of the same compound?
A: 69.2%

Q: And the viability, T/C (second compound 3.16 µM, first compound 0.0949 µM)?
A: 48.1%

Q: What about the viability, T/C (second compound 3.16 µM, first compound 0.3 µM) of the same compound?
A: 31.9%

Q: And the viability, T/C (second compound 3.16 µM, first compound 0.949 µM)?
A: 21.4%

Q: And the viability, T/C (second compound 3.16 µM, first compound 3 µM)?
A: 11%

Q: What about the viability, T/C (second compound 10 µM, first compound 0.00949 µM) of the same compound?
A: 79.2%

Q: What about the viability, T/C (second compound 10 µM, first compound 0.03 µM) of the same compound?
A: 62.8%

Q: What about the viability, T/C (second compound 10 µM, first compound 0.0949 µM) of the same compound?
A: 41%

Q: What about the viability, T/C (second compound 10 µM, first compound 0.3 µM) of the same compound?
A: 29%

Q: What about the viability, T/C (second compound 10 µM, first compound 0.949 µM) of the same compound?
A: 15.2%

Q: And the viability, T/C (second compound 10 µM, first compound 3 µM)?
A: 7.35%
